One assay concerns MPI cells. In words: Cytokine response of MPI cells to microbial stimuli (ELISA, bioassay). The format is cell-based, mouse. On the procedure: Single cell suspensions (0.5x10^6 cells/ml) from fetal livers of 15 to 19 day-old mouse embryos or of livers of new-born mice (up to 2 weeks of age) were washed in PBS and resuspended in RPMI 1640 containing 10% fetal calf serum and supplemented with 20 ng/ml recombinant murine GM-CSF (also referred to herein as MPI medium). Rapidly proliferating cells were subcultured by splitting them 1:5 in MPI medium using cells detached with PBS/1.5 mM EDTA and floating cells in the culture. Cells proliferated more slowly after 2 weeks of culture. GM-CSF was replenished weekly and subcultures in MPI medium were made when total (attached and floating) cell density reached approximately 0.5 x 10^6 cell/ml. […]
(§1) Sarcin assay, measuring Ad endosomal escape was done as described previously (Schreiner et al., 2012). […] Non-endotoxin ligands were substantially LPS-free (less than or equal to 1 pg LPS/1011 viral particles) as determined by the Limulus amebocyte lysate test from Pyroquant. […]
Detection of secreted cytokines, surface antigens, intracellular proteins and enzymatic activity The following cytokines were detected with ELISA using commercially available antibody pairs or kits: mouse IL-6 (BD Bioscience), IL-1α (eBioscience), IL-1β (eBioscience) and IL-10 (eBioscience), human IL-6 (R&D Systems), IL-1α (eBioLegend) and IL-10 (BD Bioscience). […]

The next assay relates to BMMs. In words: Cytokine response of BMMs to microbial stimuli (ELISA, bioassay). The format is cell-based, mouse.
Excerpt: BMMs (Bone Marrow derived Macrophages) and GM-CSF induced BMDCs were generated as described (Fejer et al., 2008). The purity of BMMs was higher than 98%, of BMDCs approximately 80%. SP37A3 cells were originally grown in RPMI in the presence of GM-CSF and M-CSF as described (Bros et al., 2007). Cells growing in media with […] GM-CSF but without M-CSF were selected from the original cells and used further in the studies shown here.
as §1
Detection of secreted cytokines, surface antigens, intracellular proteins and enzymatic activity The following cytokines were detected with ELISA using commercially available antibody pairs or kits: mouse IL-6 (BD Bioscience), IL-1α (eBioscience), IL-1β (eBioscience) and IL-10 (eBioscience), human IL-6 (R&D Systems), IL-1α (eBioLegend) and IL-10 (BD Bioscience). IFN-αβ and TNF-α activities were measured with bioassays as described (Fejer et al., 2005). […] Intracellular proteins were detected on immunoblots with antibodies from Pharmingen BD (IL-1α and IL-1β) and Cell Signalling (phosphorylated isophorm of p38 MAPK). […]

Consider FSL-1, for which the IFN-αβ production entry in the assay on MPI cells (MPI cells) and with BMMs was “neither of the cell types produced IFN-αβ” throughout. In addition, in the assay on MPI cells (MPI cells in comparison to BMMs), the “IL-6 and TNF-α levels” value is recorded as “higher levels”.

These data come from patent publication EP2872621B1, “METHOD FOR THE GENERATION OF NON-TRANSFORMED MACROPHAGE CELL LINES” (Max-Planck-Gesellschaft zur Förderung der Wissenschaften …, priority 2012, dated 2014).
